Measurements from patent US4935434A, “Antiarthritic isoxazole-4-carboxamides” (Bristol-Myers Company, priority 1988, dated 1990).
Read-outs that look alike come from different tables or passages of the source.

Assays:
[1] = system: adjuvant-induced polyarthritis; assay: Modified developing adjuvant arthritis in rats (adjuvant-induced polyarthritis, AIP); type: in vivo, male Lewis rats; details: Rattus norvegicus, po; for inhibition in vivo at 50 mg/kg: 50 mg/kg once daily p.o. d. 1-8; for inhibition in vivo at 100 mg/kg: 100 mg/kg once daily p.o. d. 1-8; for inhibition in vivo at 76 mg/kg: 76 mg/kg once daily p.o. d. 1-8; for inhibition in vivo at 89 mg/kg: 89 mg/kg (d. 1-5) once daily p.o.
Method: A. Modified developing adjuvant arthritis in rats.
This test is based on the procedure originally described by Pearson (Proc. Soc. Biol. Med., 1956, pp 91-5). Each experimental group used six male Lewis rats weighing approx. 250 gm. Arthritis was produced by a single intradermal injection of Mycobacterium butyricum (0.6 mg in 0.1 ml mineral oil) into the base of the tail. Test compounds were administered orally, once daily, starting on the day of inoculation (day 1) through day 8. The initial dosage was reduced during this period when side effects were observed. The paw volume (average of two hind paws) was measured by the mercury displacement method at least twice weekly during the course of the experiment (40 to 42 days). The efficacy of a compound was expressed as the percent reduction of hind paw volume of treated vs. untreated rats using the following equation: [formula]
^a once daily, p.o., from d. 1-8 (unless otherwise specified).
^b % inhibition of paw edema: 0 = <25; + = 25-<40; ++ = 40-<60; +++ =

[2] = system: carragenin-induced paw edema; assay: Carrageenin induced paw edema in the rat (CIP); type: in vivo, male Sprague Dawley rats; details: single oral dose 50 mg/kg 30 min. prior to carrageenin, determined 4 hrs. after injection, read-out: CIP % inhib. (reduction in paw volume)
Method: B. Carrageenin induced paw edema in the rat.
This test is based on the procedure originally described by Holsapple and Yim (Inflammation, 1984, 8:223). Six male Sprague Dawley rats weighing approx. 300 gm were used in each experimental group. The rats had been starved for 24 hours prior to injection of 0.1 ml of 1% carrageenin into the plantar surface of the left hind paw. Test compounds were dosed orally 30 minutes prior to carrageenin administration. The volumes of the left hind paws were measured by mercury displacement at 2,4, and 6 hours following carrageenin injection. The efficacy of a compound was expressed as the percent inhibition of carrageenin injected paw volume as compared to non-injected paw using the following equation: [formula] The peak of drug effects usually occurred 2-4 hours following carrageenin injection.
^c test compound administered as a single oral dose of 50 mg/kg 30
min. prior to carrageenin injection; % inhibition determined 4 hrs. after
carrageenin injection; I = <25% reduction in paw volume and A =
≥25% reduction in paw volume.

[3] = 528 h, d. 20-22, read-out: AIP % inhib. (% inhibition of paw edema) d. 20-22
[4] = 1008 h, d. 40-42, read-out: AIP % inhib. (% inhibition of paw edema) d. 40-42

SMILES	inhibition in vivo at 50 mg/kg [1, 3] [%]	inhibition in vivo at 50 mg/kg [1, 4] [%]	inhibition in vivo at 50 mg/kg [2] [%]	further results
C#CCNC(=O)c1cnoc1C1CC1 [Example 3, 5-Cyclopropylisoxazole-4-[N-(2-propynyl)]carboxamide]	40 to 60	40 to 60	< 25	
COc1ccc(NC(=O)c2cnoc2C2CC2)cc1 [Example 6, 5-Cyclopropylisoxazole-4-carboxylic acid (4-methoxy)anilide]			< 25	inhibition in vivo at 100 mg/kg [1, 3]: < 25%; inhibition in vivo at 100 mg/kg [1, 4]: 40 to 60%
CC(C)NC(=O)c1cnoc1C1CC1 [Example 1, 5-Cyclopropylisoxazole-4-(N-isopropyl)carboxamide]			< 25	inhibition in vivo at 76 mg/kg [1, 3]: 25 to 40%; inhibition in vivo at 76 mg/kg [1, 4]: 40 to 60%
O=C(Nc1ccc(C(F)(F)F)cc1)c1cnoc1C1CC1 [Example 7, 5-Cyclopropylisoxazole-4-carboxylic acid 4-trifluoromethylanilide]			≥ 25	
CC(C)(C)NC(=O)c1cnoc1C1CC1 [Example 2, 5-Cyclopropylisoxazole-4-(N-tert-butyl)carboxamide]	40 to 60	40 to 60	< 25	
O=C(NC1CC1)c1cnoc1C1CC1 [Example 4, 5-Cyclopropylisoxazole-4-(N-cyclopropyl)carboxamide]			< 25	inhibition in vivo at 89 mg/kg [1, 3]: 40 to 60%; inhibition in vivo at 89 mg/kg [1, 4]: 60 to 80%
O=C(Nc1cccc(C(F)(F)F)c1)c1cnoc1C1CC1 [Example 5, 5-Cyclopropylisoxazole-4-carboxylic acid 4-(3-trifluoromethyl)anilide]	40 to 60	60 to 80	≥ 25	
Cc1oncc1C(=O)NCc1ccc(C(F)(F)F)cc1 [Example 8, 5-Methylisoxazole-4-(N-4-trifluoromethylbenzyl)carboxamide]			< 25	
